From patent publication US20230255934A1, “NURR1 RECEPTOR MODULATORS AND USES THEREOF” (The Regents of the University of California, priority 2020, published 2023)
Entries after “also recorded” stand apart in the source; their conditions may differ.

Assays:
[1] = UV/VIS spectroscopy (A280) under MST assay conditions; format: physicochemical; conditions: A280 linear over all concentrations, 0.1% Pluronic F127
MN9D cells = assay: CytoTox-Glo cytotoxicity assay; format: cell-based; conditions: 24 h treatment, 10 μM unless stated
Description: Cytotoxicity assays were carried out using the CytoTox-Glo Cytotoxicity Assay Kit (Promega) according to the manufacturer's instructions. Briefly, MN9D cells were resuspended in DMEM/F-12 with 5% FBS at 2·10^5 cells/ml and added to an equal volume of two-fold concentrated compound in the same media containing 0.2% DMSO (prepared by diluting DMSO stock of the compound in warm DMEM/F-12 with 5% FBS; for DMSO control equivalent volume of DMSO was used instead of the compound stock), and immediately re-plated onto poly-D-lysine pre-treated 96-well white-walled flat clear bottom plate (Corning cat #3903) at a density of 1·10^4 cells/well (100 μL/well), 3 replicas per compound. As a background (BG) control, for each of the compound (or DMSO) equivalent volume of compound mixed with DMEM/F-12+5% FBS was plated. After 24 h treatment at 37° C., in 5% C02 incubator, 50 μL of CytoTox-Glo™ Cytotoxicity Assay Reagent was added to each well, mixed briefly by orbital shaking and incubated for 15 min at ambient temperature. Luminescence signal corresponding to dead cells was measured using Biotek Synergy H4 hybrid microplate reader. After the measurement, 50 μL of Lysis Reagent was added to each well, mixed, incubated for 15 min at ambient temperature, and total luminescence was measured. The percentage of viable cells was then calculated as follows: Percent Viable Cells (%)=100% (Total cell luminescence (test compound)—Dead cell luminescence (test compound))/(Total cell luminescence (DMSO)—Dead cell luminescence (DMSO)).

[2] = tested on: Nurr1 target genes Th and Vmat2 in MN9D cells; assay: Target gene transcription assay (qPCR) in MN9D cells; format: cell-based, mouse; conditions: for Expression of Th, fold-change relative to vehicle (DMSO) / Expression of Vmat2, fold-change relative to vehicle (DMSO): 10 μM, 24 h, normalized to Hprt
Description: Target Gene Transcription Assays. These assays were carried out using standard protocols. MN9D TET-ON frozen cell stocks (P5) were thawed and grown for 60-72 h on poly-D-lysine pre-treated culture dishes (100 mm) in Dulbecco's Modified Eagle Medium/Nutrient Mixture F-12 (DMEM/F-12; Gibco) supplemented with 5% Tet System Approved FBS (Takara Bio USA) at 37° C., 5% C02 to ˜80% confluency. The resulting cells were then trypsinized with 0.25% Trypsin-EDTA (Gibko) and diluted to 2·10^5 cells/ml with fresh medium. The resulting cell suspension (0.8 mL) was added to 2× concentrated compound in the same medium containing 0.2% DMSO (0.8 mL) in an Eppendorf tube. The cell suspension with compound or vehicle (DMSO) was then seeded onto a 24-well plate pre-treated with Poly-D-Lysine at 0.8 mL per well. Assays were performed under conditions of basal Nurr1 expression, without induction of additional Nurr1 expression using doxycycline.
After 24 h, total RNA was extracted the cells in each well using the Quick-RNA MiniPrep Plus Kit (Zymo Research), according to the manufacturer's instructions. The cDNA was then synthesized from 1000 ng of purified RNA using High-Capacity cDNA Reverse Transcription Kit (Applied Biosystems) and used as template. The qPCR as performed using iTaq Universal SYBR Green Supermix (BioRad) and CFX96 Real-Time Detection System machine (BioRad). Briefly, qPCR was performed in hard-shell 96-well PCR plates (BioRad) using cDNA corresponding to 8.75 ng of starting total RNA in a volume of 15 μl, containing 7.5 μl of SYBR Green Supermix, and 1 μL of 10 μM forward and reverse primers. Cycling parameters for qPCR included an initial denaturation at 95° C. for 3 min, followed by 40 cycles of 95° C. for 5 s and annealing at 56° C. for 30 s. The forward and reverse primers (Table 4) were ordered from IDT. Gene expression was quantified by the comparative2-ΔΔCt method, with the mouse housekeeping gene hypoxanthine-guanine phosphoribosyltransferase (Hprt) used as internal reference to determine the relative mRNA expression. Transcript levels for target genes were normalized to the housekeeping gene Hprt and fold change was compared to gene expression levels from vehicle (DMSO) only treated cells. GraphPad Prism 8 software was used for statistical analysis. Two-way ANOVA was applied for DMSO fold change vs compound. Results are from three independent experiments. Relative average expression±SD; *p<0.05, **p<0.01, ***p<0.001, ****p<0.0001 by ANOVA in comparison expression with 0 μM compound (DMSO only).

| SMILES | Precipitation under MST assay conditions [1] | Cytotoxicity / cell viability (MN9D cells) | Effect on expression of Nurr1 target genes Th and Vmat2 (in words) [2] | Expression of Th, fold-change relative to vehicle (DMSO) [2] [fold] | Expression of Vmat2, fold-change relative to vehicle (DMSO) [2] [fold] |
| --- | --- | --- | --- | --- | --- |
| Brc1ccc2[nH]ccc2c1 [5-bromoindole] | do not precipitate under the assay conditions | somewhat toxic to cells under certain conditions | upregulating the expression; also recorded: supports the transcription | 2.2 | 2.5 |
| Clc1ccc2[nH]ccc2c1 [5-chloroindole] | do not precipitate under the assay conditions | no significant effect on cell viability; also recorded: not cytotoxic; also recorded: non-cytotoxic | concentration dependent; also recorded: upregulating the expression; also recorded: supports the transcription; also recorded: superior to that of DHI | 1.8 | 2.4 |
